Experimental data reported in ChEMBL document CHEMBL3217673, “Synthesis of cyanine dyes and investigation of their in vitro antiprotozoal activities” (Medchemcomm, 2012).

Key:
Plasmodium falciparum = assay: Antiprotozoal activity against chloroquine and pyrimethamine-resistant Plasmodium falciparum K1; format: functional, organism-based
[1] = Selectivity index, ratio of IC50 for rat L6 cells to IC50 for chloroquine and pyrimethamine-resistant Plasmodium falciparum K1; format: toxicity, cell-based; conditions: read-out: Ratio IC50
Trypanosoma cruzi = assay: Antiprotozoal activity against Trypanosoma cruzi Tulahuen C2C4; format: functional, organism-based
[2] = Selectivity index, ratio of IC50 for rat L6 cells to IC50 for Trypanosoma cruzi Tulahuen C2C4; format: toxicity, cell-based; conditions: read-out: Ratio IC50
[3] = system: Trypanosoma brucei rhodesiense; assay: Antiprotozoal activity against Trypanosoma brucei rhodesiense STIB900; format: functional, organism-based
[4] = Selectivity index, ratio of IC50 for rat L6 cells to IC50 for Trypanosoma brucei rhodesiense STIB900; format: toxicity, cell-based; conditions: read-out: Ratio IC50
Leishmania donovani = assay: Antiprotozoal activity against Leishmania donovani MHOMET-67/L82; format: functional, organism-based
[5] = Selectivity index, ratio of IC50 for rat L6 cells to IC50 for Leishmania donovani MHOMET-67/L82; format: toxicity, cell-based; conditions: read-out: Ratio IC50
L6 = assay: Cytotoxicity against rat L6 cells; format: cell-based

SMILES | IC50 (Plasmodium falciparum) [nM] | selectivity ratio [1] | IC50 (Trypanosoma cruzi) [nM] | selectivity ratio [2] | IC50 [3] [nM] | selectivity ratio [4] | IC50 (Leishmania donovani) [nM] | selectivity ratio [5] | IC50 (L6) [nM]
CN1/C(=C/C=C/C=C/c2sc3ccccc3[n+]2C)Sc2ccccc21 | 133 | 13.5 | 60 | 29.9 | 13 | 137 | 140 | 12.7 | 1790
CN1/C(=C/C=C/C=C/c2sc3ccc(Cl)cc3[n+]2C)Sc2ccc(Cl)cc21 | 63 | 13.9 | 2630 | 0.3 | 8 | 106 | 75 | 11.8 | 876
CN1/C(=C/C=C/C=C/c2sc3ccc(F)cc3[n+]2C)Sc2ccc(F)cc21 | 228 | 9.2 | 1960 | 1.1 | 2 | 1190 | 188 | 11.1 | 2080
